Tested on: Aβ fibrils–SH-SY5Y cell membrane interactions
Assay: Confocal imaging of Aβ fibrils binding to SH-SY5Y cell membranes
Type: cell-based, human
Settings: 5 µM fibrils + 5 µM compound, 24 h
Text: Encouraged by the ability of the developed amphiphilic compounds to attenuate the neurotoxicity of Cu–Aβ species, we sought out to study the possible molecular mechanisms for this beneficial effect. The Aβ oligomers were reported to interact with cell membranes in various ways, such as binding to receptors on cell membranes,[49,50] inserting into membranes,[51] or even showing cellular uptake via endocytosis.[52] The abnormal interactions between Aβ oligomers and neuron cells, which could disrupt the neuronal ion homeostasis and neuron cell membrane integrity, might be why Aβ oligomers are highly neurotoxic.[53–55] Moreover, molecules that can disrupt interactions between oligomers and cell membranes are promising candidates for drug development.[56,57] Thus, we proceeded to probe the interactions of the Aβ42 oligomers with SH-SY5Y cellular membranes, in the absence and presence of the compounds, via confocal microscopy. […] Moreover, a lower concentration of Aβ42 (5 μM) or Aβ42–Cu (5 μM) were chosen to avoid significant cell death (Fig. S9b ^†). […]
RCSB database and optimized by minimal minimization with the OPLS3 force field using the Protein Preparation Wizard program. […] The calculated poses were ranked by both the docking score and Glide e-model energy, and the structures with the best docking scores and Glide e-model energies were rendered in […]

Structure (SMILES) | Aβ fibrils binding to cell membranes (in words)
CN1CCN(C)CCN(Cc2cc(/C=C/c3ccc(-c4ccc(C=O)cc4)s3)ccc2O)CC1 [ZY-15-MT] | not able to significantly decrease the numbers of the Aβ fibrils binding to cell membranes
COc1cc(/C=C/c2ccc(-c3ccc(C=O)cc3)s2)cc(CN2CCN(C)CCN(C)CC2)c1O [ZY-15-OMe] | not able to significantly decrease the numbers of the Aβ fibrils binding to cell membranes
